Test results as given in ChEMBL document CHEMBL1201862, “PubChem BioAssay data set” (2004).
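Cultured in 96-well plates, cells were exposed to test compound for 48 hours across five concentrations. GI50 = concentration required for 50% inhibition of growth.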 The source made the active and inactive calls. Rule as the data show it: active = GI50 up to about 1.1 µM and inactive = higher.

What was measured:
Test in all cases: NCI tumour cell line growth inhibition, 48 h
[1] = tested on: NCI-H460
[2] = tested on: UACC-257
[3] = tested on: MDA-N
[4] = tested on: A498
[5] = tested on: SK-MEL-2
[6] = tested on: SF-539
[7] = tested on: UACC-62
[8] = tested on: OVCAR-8
[9] = tested on: PC-3
[10] = tested on: NCI-H522
[11] = tested on: MDA-MB-231
[12] = tested on: MCF7
[13] = tested on: NCI/ADR-RES
[14] = tested on: SW-620
[15] = tested on: U-251
[16] = tested on: OVCAR-5
[17] = tested on: HT-29
[18] = tested on: NCI-H23
[19] = tested on: 786-0
[20] = tested on: MDA-MB-435

Compound	GI50 [1]	GI50 [2]	GI50 [3]	GI50 [4]	GI50 [5]	GI50 [6]	GI50 [7]	GI50 [8]	GI50 [9]	GI50 [10]	GI50 [11]	GI50 [12]	GI50 [13]	GI50 [14]	GI50 [15]	GI50 [16]	GI50 [17]	GI50 [18]	GI50 [19]	GI50 [20]
c1ccc2c3ccn4ccc5c6ccccc6[nH]c5c4c-3nc2c1	0.498 µM (active)	2 µM (inactive)	1.34 µM (inactive)	1.63 µM (inactive)	1.72 µM (inactive)	1.55 µM (inactive)	1.77 µM (inactive)	0.246 µM (active)	1.39 µM (inactive)	1.46 µM (inactive)	0.329 µM (active)	0.331 µM (active)	1.72 µM (inactive)	0.169 µM (active)	0.155 µM (active)	1.57 µM (inactive)	0.391 µM (active)	1.69 µM (inactive)	0.163 µM (active)	1.45 µM (inactive)
CN(C)c1ccc(/C=N/n2c(-c3ccccc3)nc3ccccc3c2=O)cc1	35.4 µM (inactive)	> 100 µM (inactive)	43.1 µM (inactive)	> 100 µM (inactive)	82.2 µM (inactive)	> 100 µM (inactive)	58.9 µM (inactive)	41.6 µM (inactive)	24.5 µM (inactive)	49.3 µM (inactive)	30 µM (inactive)	> 100 µM (inactive)	21.8 µM (inactive)	> 100 µM (inactive)	63.4 µM (inactive)	> 100 µM (inactive)	40 µM (inactive)	28.3 µM (inactive)	> 100 µM (inactive)	79.4 µM (inactive)
COc1cc(C2c3cc4c(cc3OC(NNc3ccccc3)C2C)OCO4)cc(OC)c1O (stereo not given)	0.337 µM (active)	1.48 µM (inactive)	0.294 µM (active)	3.85 µM (inactive)	0.724 µM (active)	0.596 µM (active)	0.132 µM (active)	1.52 µM (inactive)	0.815 µM (active)	0.561 µM (active)	1.12 µM (inactive)	2.7 µM (inactive)	1.07 µM (active)	2.59 µM (inactive)	2.55 µM (inactive)	3.21 µM (inactive)	1.23 µM (inactive)	5.6 µM (inactive)	3.18 µM (inactive)	0.204 µM (active)
O=S1(=O)N=C(SCc2ccccc2)N(c2ccccc2)c2ccncc21	28.8 µM (inactive)	31.3 µM (inactive)	27.4 µM (inactive)	17.1 µM (inactive)	34.3 µM (inactive)	66.2 µM (inactive)	44.4 µM (inactive)	47.3 µM (inactive)	25.7 µM (inactive)	18.7 µM (inactive)	68.2 µM (inactive)	31.2 µM (inactive)	21.7 µM (inactive)	56 µM (inactive)	39.2 µM (inactive)	> 100 µM (inactive)	43.9 µM (inactive)	29.6 µM (inactive)	40.8 µM (inactive)	41.5 µM (inactive)
CC(=O)NC1COC(COC(=O)CCCCCCCCCCNC(=O)c2ccc([N+](=O)[O-])c3c(=O)c4ccccc4[nH]c23)C(O)C1OC(C)C(=O)NC(C(=O)NC(CCC(N)=O)C(=O)OCc1ccccc1)C(C)C (stereo not given)	16.9 µM (inactive)	15.3 µM (inactive)	0.966 µM (active)	28.8 µM (inactive)	11 µM (inactive)	20.8 µM (inactive)	25.2 µM (inactive)	12.6 µM (inactive)	8.05 µM (inactive)	12.3 µM (inactive)	38.8 µM (inactive)	6.61 µM (inactive)	32.9 µM (inactive)	26.6 µM (inactive)	11.5 µM (inactive)	36 µM (inactive)	6.67 µM (inactive)	11.4 µM (inactive)	15 µM (inactive)	36.8 µM (inactive)
Cc1c2ccc3ccccc3c2c[n+]2ccccc12	10.7 µM (inactive)	7.62 µM (inactive)	6.71 µM (inactive)	> 47.5 µM (inactive)	11.6 µM (inactive)	8.41 µM (inactive)	13.6 µM (inactive)	4.5 µM (inactive)	26.7 µM (inactive)	3.41 µM (inactive)	21.4 µM (inactive)	10.4 µM (inactive)	55.2 µM (inactive)	4.2 µM (inactive)	1.66 µM (inactive)	61.9 µM (inactive)	27.5 µM (inactive)	4.91 µM (inactive)	2.37 µM (inactive)	12.6 µM (inactive)
O=C1CSC2(CC(/C=C/c3ccccc3Br)=NN2c2cccc(S(=O)(=O)O)c2)N1c1nc2ccccc2s1 (stereo not given)	> 100 µM (inactive)	> 100 µM (inactive)	> 100 µM (inactive)	> 100 µM (inactive)	> 100 µM (inactive)	> 100 µM (inactive)	51.5 µM (inactive)	> 100 µM (inactive)	> 100 µM (inactive)	52 µM (inactive)	> 100 µM (inactive)	50.4 µM (inactive)	> 100 µM (inactive)	> 100 µM (inactive)	75.5 µM (inactive)	> 100 µM (inactive)	> 100 µM (inactive)	> 100 µM (inactive)	> 100 µM (inactive)	43.1 µM (inactive)
